Measured values: US9908912B2, “Triclosan derivatives and uses thereof” (priority 2012, dated 2018)
Values after ≈ are worked out from the molar mass of the structure shown.

Experiments:
[1] = system: Kleb. pneumoniae ATCC 10031; assay: MIC in Nutrient Broth No. 2; type: cell-based, Klebsiella pneumoniae; conditions: Nutrient Broth No. 2
Protocol: (§1) Bacteria species as indicated in Table 1 were incubated for approximately 24 hours at 37° C.
(§2) The tests were repeated with the addition of inducers. Methyl glycoside was the main inducer used, but other suitable inducers include isopropyl-β-D-thiogalactopyranoside, p-nitrophenyl-α-L-arabinopyranoside and p-nitrophenyl-β-D-xylopyranoside. Concentration of inducer in all cases was 100 μg/ml.

[2] = system: Ent. cloacae; assay: MIC in Nutrient Agar; type: cell-based, Enterobacter cloacae; conditions: Nutrient Agar containing 0.1 μg/ml of inducer; 37° C., 24 hours
Protocol: (§3) The triclosan-glycosides were added to Nutrient Agar (Oxoid CM0003; Thermofisher Scientific) and organisms were transferred onto the plates surface using a multi-point inoculation device (Oxoid Cathra, Thermofisher Scientific). The latter is essentially a metal plate containing a number of needles. Each needle tip (usually 36 per plate) dips into an organism suspension (in phosphate buffered saline; PBS) and the needles are then moved over the agar plate and lowered onto its surface. In this way the growth of colonies of up to 36 different organisms can be observed on one plate.
(§4) Nutrient Agar No. 2 was prepared according to the manufacturers instructions, autoclaved and cooled to 50° C. Test compounds were then added as filter sterilised solutions (50:50 deionised water:ethanol), to give final concentrations from 256 μg/ml to 0 μg/ml in doubling dilutions. […] The mixtures were swirled then four plates (25 ml molten agar) were poured for each concentration. Plates were dried in a laminar flow cabinet then inoculated with overnight cultures of organisms that had been decimally diluted twice in sterile saline solution (approximately 10^7 cfu/ml) using a multi-point inoculator. Plates were then incubated at 37° C. for 24 hours. MICs were determined as the concentration at which no growth was observed.

[3] = system: Strep. pneumoniae ATCC 6305; assay: MIC in Nutrient Broth No. 2; type: cell-based, Streptococcus pneumoniae; conditions: Nutrient Broth No. 2
Protocol: as §1, §2

[4] = system: Bacillus subtilis; assay: MIC in Nutrient Agar; type: cell-based; conditions: Nutrient Agar containing 0.1 μg/ml of inducer; 37° C., 24 hours
Protocol: as §3, §4

[5] = system: Hafnia alvei; assay: MIC in Nutrient Agar; type: cell-based; conditions: Nutrient Agar containing 0.1 μg/ml of inducer; 37° C., 24 hours
Protocol: as §3, §4

[6] = system: Salmonella; assay: MIC in Nutrient Agar; type: cell-based; conditions: 11 strains; Nutrient Agar containing 0.1 μg/ml of inducer; 37° C., 24 hours
Protocol: as §3, §4

[7] = system: Bacillus cereus; assay: MIC in Nutrient Agar; type: cell-based; conditions: Nutrient Agar containing 0.1 μg/ml of inducer; 37° C., 24 hours
Protocol: as §3, §4

[8] = system: Ps. aeruginosa; assay: MIC in Nutrient Agar; type: cell-based; conditions: Nutrient Agar containing 0.1 μg/ml of inducer; 37° C., 24 hours
Protocol: as §3, §4

[9] = system: S. aureus; assay: MIC in Nutrient Agar; type: cell-based, Staphylococcus aureus; conditions: 8 strains; Nutrient Agar containing 0.1 μg/ml of inducer; 37° C., 24 hours
Protocol: as §3, §4

[10] = system: S. saprophyticus; assay: MIC in Nutrient Agar; type: cell-based, Staphylococcus saprophyticus; conditions: Nutrient Agar containing 0.1 μg/ml of inducer; 37° C., 24 hours
Protocol: as §3, §4

[11] = system: Strep. viridans OCC 234; assay: MIC in Nutrient Broth No. 2; type: cell-based, Streptococcus viridans; conditions: Nutrient Broth No. 2
Protocol: as §1, §2

[12] = system: E. hermanii ATCC 33650; assay: MIC in Nutrient Broth No. 2; type: cell-based, Escherichia hermanii; conditions: Nutrient Broth No. 2
Protocol: as §1, §2

[13] = system: Str. pyogenes; assay: MIC in Nutrient Agar; type: cell-based, Streptococcus pyogenes; conditions: Nutrient Agar containing 0.1 μg/ml of inducer; 37° C., 24 hours
Protocol: as §3, §4

[14] = system: Staph. epidermidis; assay: MIC in Nutrient Broth No. 2; type: cell-based, Staphylococcus epidermidis; conditions: 3 strains, Nutrient Broth No. 2
Protocol: as §1, §2

[15] = system: E. coli; assay: MIC in Nutrient Agar; type: cell-based, Escherichia coli; conditions: 8 strains; Nutrient Agar containing 0.1 μg/ml of inducer; 37° C., 24 hours
Protocol: as §3, §4

[16] = system: Str. pneumoniae; assay: MIC in Nutrient Agar; type: cell-based, Streptococcus pneumoniae; conditions: Nutrient Agar containing 0.1 μg/ml of inducer; 37° C., 24 hours
Protocol: as §3, §4

[17] = system: Ent. faecalis; assay: MIC in Nutrient Agar; type: cell-based, Enterococcus faecalis; conditions: Nutrient Agar containing 0.1 μg/ml of inducer; 37° C., 24 hours
Protocol: as §3, §4

[18] = system: S. epidermidis; assay: MIC in Nutrient Agar; type: cell-based, Staphylococcus epidermidis; conditions: 3 strains; Nutrient Agar containing 0.1 μg/ml of inducer; 37° C., 24 hours
Protocol: as §3, §4

[19] = system: Str. agalactiae; assay: MIC in Nutrient Agar; type: cell-based, Streptococcus agalactiae; conditions: Nutrient Agar containing 0.1 μg/ml of inducer; 37° C., 24 hours
Protocol: as §3, §4

[20] = system: Ent. aerogenes; assay: MIC in Nutrient Agar; type: cell-based, Enterobacter aerogenes; conditions: Nutrient Agar containing 0.1 μg/ml of inducer; 37° C., 24 hours
Protocol: as §3, §4

[21] = system: Cr. sakazakii; assay: MIC in Nutrient Agar; type: cell-based, Cronobacter sakazakii; conditions: Nutrient Agar containing 0.1 μg/ml of inducer; 37° C., 24 hours
Protocol: as §3, §4

[22] = system: Staph. haemolyticus OCC 2223; assay: MIC in Nutrient Broth No. 2; type: cell-based, Staphylococcus haemolyticus; conditions: Nutrient Broth No. 2
Protocol: as §1, §2

[23] = system: Strep. pyogenes ATCC 19615; assay: MIC in Nutrient Broth No. 2; type: cell-based, Streptococcus pyogenes; conditions: Nutrient Broth No. 2
Protocol: as §1, §2

[24] = system: Strep. agalactiae OCC 182; assay: MIC in Nutrient Broth No. 2; type: cell-based, Streptococcus agalactiae; conditions: Nutrient Broth No. 2
Protocol: as §1, §2

[25] = system: Staph. saprophyticus ATCC 15305; assay: MIC in Nutrient Broth No. 2; type: cell-based, Staphylococcus saprophyticus; conditions: Nutrient Broth No. 2
Protocol: as §1, §2

[26] = system: Ser. marcescens; assay: MIC in Nutrient Agar; type: cell-based, Serratia marcescens; conditions: Nutrient Agar containing 0.1 μg/ml of inducer; 37° C., 24 hours
Protocol: as §3, §4

[27] = system: E. hermanii; assay: MIC in Nutrient Agar; type: cell-based, Escherichia hermanii; conditions: Nutrient Agar containing 0.1 μg/ml of inducer; 37° C., 24 hours
Protocol: as §3, §4

[28] = system: Str. viridans; assay: MIC in Nutrient Agar; type: cell-based, Streptococcus viridans; conditions: Nutrient Agar containing 0.1 μg/ml of inducer; 37° C., 24 hours
Protocol: as §3, §4

[29] = system: Kleb. aerogenes NCTC 88167; assay: MIC in Nutrient Broth No. 2; type: cell-based, Klebsiella aerogenes; conditions: Nutrient Broth No. 2
Protocol: as §1, §2

[30] = system: Staph. aureus; assay: MIC in Nutrient Broth No. 2; type: cell-based, Staphylococcus aureus; conditions: 8 strains, Nutrient Broth No. 2
Protocol: as §1, §2

[31] = system: Ent. faecium; assay: MIC in Nutrient Agar; type: cell-based, Enterococcus faecium; conditions: Nutrient Agar containing 0.1 μg/ml of inducer; 37° C., 24 hours
Protocol: as §3, §4

[32] = system: Kleb. aerogenes; assay: MIC in Nutrient Agar; type: cell-based, Klebsiella aerogenes; conditions: Nutrient Agar containing 0.1 μg/ml of inducer; 37° C., 24 hours
Protocol: as §3, §4

[33] = system: Crono. sakazakii ATCC 29544; assay: MIC in Nutrient Broth No. 2; type: cell-based, Cronobacter sakazakii; conditions: Nutrient Broth No. 2
Protocol: as §1, §2

Question: What does the source list for `O[C@@H]1[C@H](Oc2cc(Cl)ccc2Oc2ccc(Cl)cc2Cl)OC[C@@H](O)[C@H]1O` [β-D-Arabinoside, triclosan-β-D-arabinopyranoside]?
Answer: MIC ([1]; with inducer 100 μg/ml): 8 µg/mL (≈ 19 µM); MIC ([1]; without inducer): 4 µg/mL (≈ 9.49 µM); MIC [2]: 16 µg/mL (≈ 37.9 µM); MIC ([3]; with inducer 100 μg/ml): 64 µg/mL (≈ 152 µM); MIC ([3]; without inducer): 64 µg/mL (≈ 152 µM); MIC [4]: 256 µg/mL (≈ 607 µM); MIC [5]: 8 µg/mL (≈ 19 µM); MIC [6]: 32 to 64 µg/mL; MIC [7]: 256 µg/mL (≈ 607 µM); MIC [8]: >256 µg/mL; MIC [9]: 8 to 16 µg/mL; MIC [10]: 64 µg/mL (≈ 152 µM); MIC ([11]; with inducer 100 μg/ml): 128 µg/mL (≈ 304 µM); MIC ([11]; without inducer): 128 µg/mL (≈ 304 µM); MIC ([12]; with inducer 100 μg/ml): 16 µg/mL (≈ 37.9 µM); MIC ([12]; without inducer): 32 µg/mL (≈ 75.9 µM); MIC [13]: 64 µg/mL (≈ 152 µM); MIC ([14]; with inducer 100 μg/ml): 4 to 64 µg/mL; MIC ([14]; without inducer): 8 to 16 µg/mL; MIC [15]: 8 to 32 µg/mL; MIC [16]: 64 µg/mL (≈ 152 µM); MIC [17]: 256 µg/mL (≈ 607 µM); MIC [18]: 16 µg/mL (≈ 37.9 µM); MIC [19]: 128 µg/mL (≈ 304 µM); MIC [20]: 64 µg/mL (≈ 152 µM); MIC [21]: 256 µg/mL (≈ 607 µM); MIC ([22]; with inducer 100 μg/ml): 16 µg/mL (≈ 37.9 µM); MIC ([22]; without inducer): 128 µg/mL (≈ 304 µM); MIC ([23]; with inducer 100 μg/ml): 32 µg/mL (≈ 75.9 µM); MIC ([23]; without inducer): 32 µg/mL (≈ 75.9 µM); MIC ([24]; with inducer 100 μg/ml): 128 µg/mL (≈ 304 µM); MIC ([24]; without inducer): 128 µg/mL (≈ 304 µM); MIC ([25]; with inducer 100 μg/ml): 64 µg/mL (≈ 152 µM); MIC ([25]; without inducer): 64 µg/mL (≈ 152 µM); MIC [26]: >256 µg/mL; MIC [27]: 32 µg/mL (≈ 75.9 µM); MIC [28]: 128 µg/mL (≈ 304 µM); MIC ([29]; with inducer 100 μg/ml): 32 µg/mL (≈ 75.9 µM); MIC ([29]; without inducer): 32 µg/mL (≈ 75.9 µM); MIC ([30]; with inducer 100 μg/ml): 4 to 8 µg/mL; MIC ([30]; without inducer): 4 to 8 µg/mL; MIC [31]: 256 µg/mL (≈ 607 µM); MIC [32]: 64 µg/mL (≈ 152 µM); MIC ([33]; with inducer 100 μg/ml): 64 µg/mL (≈ 152 µM); MIC ([33]; without inducer): 128 µg/mL (≈ 304 µM)
